This is an account of results in paper PMC11505038, “Kalata B1 Enhances Temozolomide Toxicity to Glioblastoma Cells” (Biomedicines, 2024).

Read-outs that look alike come from different tables or passages of the source.

Test [1] has as its system T-98G human glioblastoma cells. Description: cells. The following applies: Homo sapiens, T98G, 72 h, read-out: IC50 (μM) ± S.D. On the procedure: (§1) SH-SY5Y human neuroblastoma cells (population doubling (PD) 20−24), T-98G, and U-87 MG human glioblastoma cells were removed from cryogenic storage, thawed rapidly in a water bath (37 °C) and reconstituted in 75 cm^2 flasks. For SH-SY5Y, the following media were used: Dulbecco’s modified Eagle’s medium/Nutrient F12 Ham (Sigma-Aldrich, Cat. No. D8437) containing 10% heat-inactivated fetal bovine serum, 4 mM L-glutamine, 100 U/mL penicillin, and 100 μg/mL streptomycin. For U-87 MG and T-98G Eagle’s minimal essential medium (ATCC: The Global Bioresource Center, Cat. No. ATCC 30-2003), containing 10% heat-inactivated fetal bovine serum, 4 mM L-glutamine, 100 U/mL penicillin, and 100 μg/mL streptomycin were used.
(§2) Cells were incubated at 37 °C in a humidified atmosphere of 5% CO2 and 95% air until recovered and ready for passaging (approximately 4 days). At between 80% and 90% confluence, the cells were trypsinized with warm (37 °C) sterile 0.5% Trypsin-EDTA (Thermo Fisher, Cat. No. 15400054) and passaged into 175 cm^2 flasks, where they were left to multiply until they reached 80−90% confluence. To plate cells: cultures were trypsinized, resuspended in 20 mL sterile PBS, counted using a cell counter (Olympus cell counter model R1), and plated in 96-well plates at an optimal density of 6000 cells/well in the designated culture media. The cells were left to adhere overnight before treatment the following day, when the culture medium was removed and replaced with the treatment medium. All incubations were conducted in triplicate wells and repeated at least three times (n = 3).
(§3) To calculate TMZ IC50 values in each cell line, TMZ was dissolved in DMSO at a stock concentration of 103 mM, which was then diluted into culture medium on the day of use, with the DMSO final concentration always less than 0.1%. The following concentrations of TMZ were used in the experiments: 0.5, 5, 50, 500, 2500, 5000 μM. The media were sterilized for each treatment media with a 0.22 μm filter before they were added to cell cultures. To determine the IC50 values for each cyclotide in each cell type, cyclotides were dissolved into 10% DMSO and then dilutions used to screen cyclotides with a final DMSO concentration of less than 0.1% The following concentrations of cyclotides were used: 0.1, 1, 5, 10 μM. For co-exposure experiments, a simultaneous exposure of cyclotide and TMZ at each respective dose was added to cell cultures (100 μL final volume per well).
(§4) In accordance with the methods developed by Mosmann and colleagues, the MTT assay was conducted using the Roche cell proliferation kit (Cat. No. 11465007001). Briefly, cells that are active can cleave MTT. The MTT is originally a yellow tetrazolium salt that undergoes a colorimetric change to purple formazan crystals, and the change in absorbance can be measured as an indicator of cell viability/proliferation. For these experiments, cells were plated into 96-well flat-bottom plates, as described in the cell culture above. […] To align with our previous work, experiments were conducted with a 72 h time frame for cytotoxicity evaluation.
(§5) After a 72 h incubation period, plates were removed from the incubator and 10 µL of MTT was added to each well. The plates were returned to the incubator for an additional 4 h, after which 100 µL of a solubilization solution was added to each well. The plates were returned to incubation overnight, and the next day absorbances were read at 570 nm on a Molecular Devices FlexStation 3 using SoftMax Pro Microplate Data Acquisition and Analysis Software (version 7.0.2).

Test [2] relates to U-87 MG human glioblastoma cells. Briefly: cells. On the procedure:
as §1, §2, §3, §4, §5

The test system of a further test is U-87 MG cells. Description: Phase contrast microscopy of U-87 MG cultures. Type of test: cell-based, human. Particulars: 72 h, 150 µM TMZ alone or 0.5 µM synthetic Kalata B1 alone, 20× phase contrast.
In test [3] the test system is U-87 MG human glioblastoma cells. Particulars: MTT, 72 h, previously published data; cited from earlier work. The method, then: Table 4 Toxicity and IC50 values of five cyclotides and TMZ in SH-SY5Y, U-87 MG, and T-98G cell cultures. | column: IC50 (μM) ± S.D. || The IC50 values of natural and synthetic cyclotides, as well as TMZ, are provided in Table 4. […] The IC50 values were calculated using nonlinear regression analysis with dose-dependent inhibition and an inhibitor vs. no ... || Figure 5 Effect of natural and synthetic Kalata B1 on cell viability in SH-SY5Y, U-87MG, and T-98G cells cultures. The IC50 values for the cyclotides were determined using MTT assay after incubation with cells at increasing concentrations (0.1, 1, 5, and 10 μM) as compared to the control. Panel (A): SH-SY5Y and U-87 MG cells, and panel (B) T-98G and U-87 MG cells. Cultures (6000 cells per well in a 96-well plate), were treated with the cyclotide indicated, for 72 h, then MTT measured. Cell viability was calculated as a percentage of control cultures. IC50 values were calculated using the Best ... || (+ 4 further places)

For test [4], the system named is SH-SY5Y human neuroblastoma cells. Particulars: MTT, 72 h, previously published data; cited from earlier work. On the procedure: Table 4 Toxicity and IC50 values of five cyclotides and TMZ in SH-SY5Y, U-87 MG, and T-98G cell cultures. | column: IC50 (μM) ± S.D. || Figure 5 Effect of natural and synthetic Kalata B1 on cell viability in SH-SY5Y, U-87MG, and T-98G cells cultures. The IC50 values for the cyclotides were determined using MTT assay after incubation with cells at increasing concentrations (0.1, 1, 5, and 10 μM) as compared to the control. Panel (A): SH-SY5Y and U-87 MG cells, and panel (B) T-98G and U-87 MG cells. Cultures (6000 cells per well in a 96-well plate), were treated with the cyclotide indicated, for 72 h, then MTT measured. Cell viability was calculated as a percentage of control cultures. IC50 values were calculated using the Best ... || To evaluate the cytotoxicity of plant-derived Kalata B1 and synthetic Kalata B1, MTT assays were performed with T-98G, U-87 MG, and SH-SY5Y cell cultures.

The test system of test [5] is TMZ-resistant cell line T-98G. The following applies: ref Lee 31, read-out: Range of TMZ IC50 values summarized in the literature; cited from earlier work. An excerpt: Symptoms of GBM include seizures, headaches, nausea, and memory loss, and the side effects of TMZ can not only intensify headaches and nausea but also include diarrhea, constipation, loss of appetite, and sores in the mouth and throat. TMZ is an oral DNA alkylating agent that induces cell cycle arrest at G2/M, and its cytotoxicity is mediated by the addition of methyl groups at N^7 and O^6 sites on guanines and the […] in genomic DNA. A thymine instead of a cytosine is inserted during the alkylation of the O^6 site on guanine, which can cause cell death during DNA replication. ...

With `Cn1nnc2c(C(N)=O)ncn2c1=O` [TMZ, temozolomide], the IC50 (in general, the concentration that inhibits the measured activity by half) in test [1] was 1160 ± 5.31 µM; in test [2] (Homo sapiens, U-87 MG, 72 h, read-out: IC50 (μM) ± S.D.), 1617 ± 5.56 µM; in test [3], 2898 ± 6 µM; in test [4], 393 ± 4.5 µM; in test [5], 250 to 1580 µM. In addition, the “Cell death in MTT cell viability assay” value in test [2] is reported as “less than 15%”. For the same compound, in the test with U-87 MG cells, the “Morphological changes versus control cultures, single agent” value is on record as “little differences”.
